“Also recorded” adds a separate entry of the source. Read-outs that look alike come from different tables or passages of the source. Positions of bridges follow the written chain, without caps; N, C: chain ends. Residues, ends and D or L forms follow the SMILES beside them.
Tests used:
[1] = tested on: S. aureus (SA) agr-IV; parameters: method as in ref (5) (a number printed in a supplementary file, which may have a reference list of its own: not looked up in the article's list); conditions: hemolysis; ref (5); cited from earlier work
[2] = tested on: S. aureus agr-I P3-YFP reporter strain; assay: Quorum sensing inhibition resistance development experiment; assay type: cell-based, Staphylococcus aureus; conditions: flow cytometry
Protocol: The next day, YFP expression levels were assessed by flow cytometry (YFP: excitation 500 nm, emission 541 nm), and the overnight cultures were diluted 1:250 in fresh TSB medium containing CAM and 33 or no peptide (final volume 2.0 mL) and incubated overnight at 37°C in a shaking incubator. The procedure was repeated in total for 15 days, and the passaged cultures were subsequently frozen at −80°C. The passaged cultures were inoculated from frozen stocks in 2.0 mL TSB medium containing CAM in 15 mL centrifugal tubes and incubated overnight at 37°C in a shaking incubator.

[3] = tested on: methicillin resistant S. aureus (MRSA43484); assay type: in vivo, Balb/c female mice
Protocol: The mouse model was performed under contract at Statens Serum Institut (DK) essentially as previously described ([64]). […] All animal experiments were approved by the National Committee of Animal Ethics, Denmark. Mice were anesthetized, and the hair was removed on a 2 cm^2 skin area on the back, and thereafter, the outermost layer of the skin was scraped off with a dermal curette to obtain a 1 cm^2 superficial skin lesion. For vehicle control and Fucidin treatment, 10 μL inoculum containing approximately 10^7 CFU of methicillin resistant S. aureus (MRSA43484) were spread on the skin lesions. […] This leads to the absolute application of 1 nmol, corresponding to ~10-fold less inhibitory AIP than previously tested in other murine epicutaneous infection models ([12], [13], [15]). After the inoculum had dried, the mice were placed in a cage and kept in a warming cabinet until fully awake. The topical skin treatment with Fucidin was initiated one day after inoculation (days 2, 3, and 4) by spreading 50 μL of Fucidin on the inoculated skin area once a day. Skin lesion size and body weight were measured on days 1, 2, and 4 of all mice. Mice were sacrificed on days 1 (n = 8 vehicle), 2 (n = 4 vehicle, Fucidin, 33), and 4 (n = 4 vehicle, Fucidin, 33), and the infected skin area was cut out and homogenized to determine the CFU count in the skin lesions. Statistical testing was conducted using one-way analysis of variance (ANOVA) with multiple comparisons (Dunnett’s test) and an alpha level of 0.05.

[4] = tested on: S. aureus (SA) agr-II; conditions: b-lactamase, cited from earlier work
[5] = tested on: S. epidermidis (SE) agr-I; parameters: method as in ref (9) (a number printed in a supplementary file, which may have a reference list of its own: not looked up in the article's list); conditions: HPLC d-toxin, ref (9); cited from earlier work

S. aureus AIP-III D4A [compound 57, reference compound]
IC50 [1]: 0.11 nM

NCCCC[C@H](N)C(=O)N[C@@H](Cc1ccc(O)cc1)C(=O)N[C@@H](Cc1ccc(O)cc1)C(=O)N1CCC[C@H]1C(=O)N[C@H]1CSC(=O)[C@H](Cc2ccccc2)NC(=O)[C@H](Cc2ccc(O)cc2)NC(=O)CNC(=O)[C@H](Cc2c[nH]c3ccccc23)NC1=O [compound 33, S. simulans AIP-II] (H-KYYPCWGYF; thioester 5-C)
agr activity during daily passaging for 15 days ([2]; 33 at 2 nM or 100 nM): full repression of agr activity; also recorded: repressed agr activity
susceptibility to QS inhibition after 15 passages compared with non-passaged reporter strain ([2]; passaged cultures treated with 33 (10–0.08 nM)): no change in potency; also recorded: remained equally susceptible
skin lesion size compared with the vehicle control after 48 h ([3]; 33: 100 μM in MRSA inoculum (10^7 CFU), single, Fucidin daily, P = 0.0174 (33), P = 0.0108 (fusidic acid)): significant reduction
skin lesion size compared with the vehicle control after 96 h ([3]; 33: 100 μM in MRSA inoculum (10^7 CFU), single, Fucidin daily, P = 0.0249 (33), P = 0.0202 (fusidic acid)): significant reduction
decrease in bacterial load compared with vehicle control after 4 days ([3]; 33: 100 μM single (P = 0.009), fusidic acid daily (P = 0.0168)): ~ 60 fold

CC[C@H](C)[C@@H]1NC(=O)[C@H](Cc2ccccc2)NC(=O)[C@H](CC(=O)O)NC(=O)[C@@H](NC(=O)[C@@H](NC(=O)[C@H](CO)NC(=O)[C@@H](N)Cc2ccc(O)cc2)[C@@H](C)O)CSC(=O)[C@H](CCSC)NC1=O [compound 1, S. aureus AIP-I] (H-YSTCDFIM; thioester 4-C)
IC50 ([4]; ref (2)): 3.4 ± 1.2 nM
IC50 ([4]; ref (4)): 25 nM
inhibition at 1000 nM, SE agr-I [5]: no inhibition

— PMC12345137 (mBio, 2025)
